Experimental data as given in publication PMC6704710, “Preclinical evaluation of 3D185, a novel potent inhibitor of FGFR1/2/3 and CSF-1R, in FGFR-dependent and macrophage-dominant cancer models” (Journal of Experimental & Clinical Cancer Research : CR, 2019).

Assays:
Experiment in all cases: Eurofins kinase panel
Type in all cases: biochemical
Details in all cases: read-out: Inhibition rate (%)
PRK2(h) = molecular target: T1, PRK2(h) (Homo sapiens, UniProt Q16513)
T1 construct: purchased Eurofins (KinaseProfiler)
T1 sequence (Q16513 whole entry): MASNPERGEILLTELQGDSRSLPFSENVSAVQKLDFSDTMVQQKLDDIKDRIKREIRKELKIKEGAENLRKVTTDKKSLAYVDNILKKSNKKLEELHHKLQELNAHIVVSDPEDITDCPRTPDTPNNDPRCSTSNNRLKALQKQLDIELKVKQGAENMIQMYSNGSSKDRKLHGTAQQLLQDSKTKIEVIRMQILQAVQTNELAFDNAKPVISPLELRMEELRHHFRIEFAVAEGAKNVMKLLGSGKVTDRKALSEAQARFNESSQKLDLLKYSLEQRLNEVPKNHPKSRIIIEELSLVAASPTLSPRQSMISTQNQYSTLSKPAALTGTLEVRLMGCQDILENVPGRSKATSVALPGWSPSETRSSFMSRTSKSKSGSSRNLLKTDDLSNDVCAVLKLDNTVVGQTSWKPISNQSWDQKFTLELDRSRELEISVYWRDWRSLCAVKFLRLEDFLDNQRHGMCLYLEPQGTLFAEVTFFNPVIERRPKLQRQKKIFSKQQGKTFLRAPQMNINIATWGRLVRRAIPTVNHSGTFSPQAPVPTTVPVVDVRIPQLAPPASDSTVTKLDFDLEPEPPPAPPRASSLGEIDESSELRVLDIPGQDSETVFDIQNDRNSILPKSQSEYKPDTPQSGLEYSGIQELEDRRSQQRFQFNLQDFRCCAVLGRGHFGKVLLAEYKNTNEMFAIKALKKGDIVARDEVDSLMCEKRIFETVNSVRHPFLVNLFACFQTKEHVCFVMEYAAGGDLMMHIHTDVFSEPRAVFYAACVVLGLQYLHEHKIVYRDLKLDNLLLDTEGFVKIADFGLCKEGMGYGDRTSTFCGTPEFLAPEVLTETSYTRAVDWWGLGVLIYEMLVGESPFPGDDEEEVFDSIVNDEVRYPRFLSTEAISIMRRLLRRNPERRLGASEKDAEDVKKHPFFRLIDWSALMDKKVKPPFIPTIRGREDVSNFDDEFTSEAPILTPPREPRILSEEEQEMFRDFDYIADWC

RIPK1(h) = molecular target: T2, RIPK1(h) (Homo sapiens, UniProt Q13546)
T2 construct: purchased Eurofins (KinaseProfiler)
T2 sequence (Q13546 1-671): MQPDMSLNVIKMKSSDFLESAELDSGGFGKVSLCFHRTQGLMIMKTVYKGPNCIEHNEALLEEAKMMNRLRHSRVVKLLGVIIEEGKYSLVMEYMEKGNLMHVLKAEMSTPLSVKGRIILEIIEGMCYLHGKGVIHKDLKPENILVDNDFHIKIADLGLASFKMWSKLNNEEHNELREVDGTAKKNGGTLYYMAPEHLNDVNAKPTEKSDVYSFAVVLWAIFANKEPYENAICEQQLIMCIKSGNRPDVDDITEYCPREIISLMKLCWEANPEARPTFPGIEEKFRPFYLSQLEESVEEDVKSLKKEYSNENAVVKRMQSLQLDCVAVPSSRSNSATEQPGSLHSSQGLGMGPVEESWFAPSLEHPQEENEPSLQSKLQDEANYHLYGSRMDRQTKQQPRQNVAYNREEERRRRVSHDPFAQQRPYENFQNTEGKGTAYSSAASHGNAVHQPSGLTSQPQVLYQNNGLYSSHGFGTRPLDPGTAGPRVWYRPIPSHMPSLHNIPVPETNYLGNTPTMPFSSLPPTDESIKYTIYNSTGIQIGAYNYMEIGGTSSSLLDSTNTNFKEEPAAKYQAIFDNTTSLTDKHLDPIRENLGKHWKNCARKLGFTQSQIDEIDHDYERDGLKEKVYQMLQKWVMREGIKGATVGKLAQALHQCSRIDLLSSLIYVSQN

SGK2(h) = molecular target: T3, SGK2(h) (Homo sapiens, UniProt Q9HBY8)
T3 construct: purchased Eurofins (KinaseProfiler)
T3 sequence (Q9HBY8 1-367): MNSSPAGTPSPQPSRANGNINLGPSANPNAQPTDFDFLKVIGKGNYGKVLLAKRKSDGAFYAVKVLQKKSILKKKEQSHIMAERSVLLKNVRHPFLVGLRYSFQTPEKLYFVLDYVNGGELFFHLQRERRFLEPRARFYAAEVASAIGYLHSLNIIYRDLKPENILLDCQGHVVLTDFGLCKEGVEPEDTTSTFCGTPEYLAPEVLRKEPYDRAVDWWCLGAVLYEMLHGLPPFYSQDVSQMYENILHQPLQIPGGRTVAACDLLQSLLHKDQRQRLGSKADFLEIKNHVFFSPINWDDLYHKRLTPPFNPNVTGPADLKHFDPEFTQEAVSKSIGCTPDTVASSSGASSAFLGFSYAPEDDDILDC

PTK5(h) = molecular target: T4, PTK5(h) (Homo sapiens, UniProt P42685)
T4 construct: purchased Eurofins (KinaseProfiler)
T4 sequence (P42685 whole entry): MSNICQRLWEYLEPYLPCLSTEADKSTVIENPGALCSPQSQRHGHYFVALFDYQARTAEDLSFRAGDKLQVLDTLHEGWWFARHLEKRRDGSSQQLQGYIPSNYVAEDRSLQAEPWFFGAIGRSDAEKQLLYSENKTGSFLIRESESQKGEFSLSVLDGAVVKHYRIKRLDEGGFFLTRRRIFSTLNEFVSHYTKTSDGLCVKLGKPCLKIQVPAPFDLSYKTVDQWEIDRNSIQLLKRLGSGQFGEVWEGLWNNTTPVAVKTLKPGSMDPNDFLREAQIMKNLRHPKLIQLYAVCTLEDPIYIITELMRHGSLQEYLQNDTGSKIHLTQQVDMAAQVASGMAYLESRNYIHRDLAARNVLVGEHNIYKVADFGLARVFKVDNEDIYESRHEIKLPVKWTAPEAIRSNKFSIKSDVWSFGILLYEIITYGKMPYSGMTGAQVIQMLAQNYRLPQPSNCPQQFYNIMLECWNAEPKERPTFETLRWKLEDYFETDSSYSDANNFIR

CDKL3(h) = molecular target: T5, CDKL3(h) (Homo sapiens, UniProt Q8IVW4)
T5 construct: purchased Eurofins (KinaseProfiler)
T5 sequence (Q8IVW4 whole entry): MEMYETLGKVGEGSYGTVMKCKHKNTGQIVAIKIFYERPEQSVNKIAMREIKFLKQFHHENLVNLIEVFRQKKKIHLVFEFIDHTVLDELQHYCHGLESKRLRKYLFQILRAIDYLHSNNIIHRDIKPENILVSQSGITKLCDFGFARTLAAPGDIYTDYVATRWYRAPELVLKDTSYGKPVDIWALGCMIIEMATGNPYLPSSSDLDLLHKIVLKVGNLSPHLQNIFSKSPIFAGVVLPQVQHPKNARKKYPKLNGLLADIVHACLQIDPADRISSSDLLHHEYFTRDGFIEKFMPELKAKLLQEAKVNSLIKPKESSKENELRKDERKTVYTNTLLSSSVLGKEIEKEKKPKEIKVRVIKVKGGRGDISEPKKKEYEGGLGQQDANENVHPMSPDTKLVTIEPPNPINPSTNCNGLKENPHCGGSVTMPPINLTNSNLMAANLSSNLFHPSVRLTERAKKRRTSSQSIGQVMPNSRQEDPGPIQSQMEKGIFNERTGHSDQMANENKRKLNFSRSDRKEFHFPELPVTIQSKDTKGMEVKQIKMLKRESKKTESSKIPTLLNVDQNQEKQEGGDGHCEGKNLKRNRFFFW

TLK2(h) = molecular target: T6, TLK2(h) (Homo sapiens, UniProt Q86UE8)
T6 construct: purchased Eurofins (KinaseProfiler)
T6 sequence (Q86UE8 whole entry): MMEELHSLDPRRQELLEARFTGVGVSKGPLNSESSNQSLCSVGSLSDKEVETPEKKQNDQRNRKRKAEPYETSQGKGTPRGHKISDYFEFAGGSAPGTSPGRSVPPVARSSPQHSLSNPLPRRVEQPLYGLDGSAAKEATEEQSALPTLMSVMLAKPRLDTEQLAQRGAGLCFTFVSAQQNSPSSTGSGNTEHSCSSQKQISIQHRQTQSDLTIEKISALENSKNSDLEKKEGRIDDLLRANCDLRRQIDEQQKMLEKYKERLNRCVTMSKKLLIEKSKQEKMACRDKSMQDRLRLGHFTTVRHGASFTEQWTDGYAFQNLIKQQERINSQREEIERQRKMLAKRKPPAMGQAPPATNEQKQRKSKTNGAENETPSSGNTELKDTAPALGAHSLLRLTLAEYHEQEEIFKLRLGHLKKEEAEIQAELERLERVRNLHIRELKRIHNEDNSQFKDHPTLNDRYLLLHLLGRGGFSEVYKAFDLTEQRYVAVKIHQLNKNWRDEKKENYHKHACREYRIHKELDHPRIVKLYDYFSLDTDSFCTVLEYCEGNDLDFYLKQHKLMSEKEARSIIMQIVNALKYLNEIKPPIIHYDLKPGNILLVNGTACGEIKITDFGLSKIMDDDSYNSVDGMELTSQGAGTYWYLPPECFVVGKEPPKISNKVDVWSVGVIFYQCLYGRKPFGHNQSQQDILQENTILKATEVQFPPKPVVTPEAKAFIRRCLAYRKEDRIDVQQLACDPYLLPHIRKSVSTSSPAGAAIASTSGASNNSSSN

EGFR(L861Q)(h) = molecular target: T7, EGFR(L861Q)(h) (Homo sapiens, UniProt P00533, L861Q)
T7 construct: purchased Eurofins (KinaseProfiler)
T7 sequence (P00533 25-1210 L861Q): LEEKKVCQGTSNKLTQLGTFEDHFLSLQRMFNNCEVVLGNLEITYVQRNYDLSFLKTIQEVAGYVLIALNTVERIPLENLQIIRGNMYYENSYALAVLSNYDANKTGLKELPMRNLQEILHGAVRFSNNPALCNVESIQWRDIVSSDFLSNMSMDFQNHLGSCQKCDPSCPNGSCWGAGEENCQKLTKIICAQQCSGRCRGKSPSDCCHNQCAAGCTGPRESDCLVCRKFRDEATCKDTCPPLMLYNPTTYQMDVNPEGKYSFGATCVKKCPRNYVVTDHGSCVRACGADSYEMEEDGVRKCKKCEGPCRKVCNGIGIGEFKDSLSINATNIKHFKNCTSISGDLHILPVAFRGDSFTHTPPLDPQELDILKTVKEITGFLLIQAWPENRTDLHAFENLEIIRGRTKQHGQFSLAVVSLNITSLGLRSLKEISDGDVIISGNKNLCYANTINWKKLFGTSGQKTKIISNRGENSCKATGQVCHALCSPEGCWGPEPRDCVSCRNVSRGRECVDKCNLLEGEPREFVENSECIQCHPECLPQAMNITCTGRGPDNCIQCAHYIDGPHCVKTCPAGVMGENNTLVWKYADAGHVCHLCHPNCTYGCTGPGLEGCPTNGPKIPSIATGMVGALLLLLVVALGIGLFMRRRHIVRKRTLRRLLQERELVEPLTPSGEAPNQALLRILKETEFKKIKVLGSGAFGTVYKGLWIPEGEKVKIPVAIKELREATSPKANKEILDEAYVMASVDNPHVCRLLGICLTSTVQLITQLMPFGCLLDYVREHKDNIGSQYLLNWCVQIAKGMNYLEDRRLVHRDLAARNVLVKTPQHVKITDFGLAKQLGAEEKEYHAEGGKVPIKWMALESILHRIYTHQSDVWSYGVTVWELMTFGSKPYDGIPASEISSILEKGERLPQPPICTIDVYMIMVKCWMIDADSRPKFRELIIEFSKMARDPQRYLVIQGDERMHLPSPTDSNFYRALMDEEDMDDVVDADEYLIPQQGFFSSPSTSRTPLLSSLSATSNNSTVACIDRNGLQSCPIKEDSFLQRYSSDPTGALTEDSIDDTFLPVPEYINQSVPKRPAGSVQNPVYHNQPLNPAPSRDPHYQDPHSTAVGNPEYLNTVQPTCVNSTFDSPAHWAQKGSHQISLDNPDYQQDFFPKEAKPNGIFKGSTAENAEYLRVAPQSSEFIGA

CK1γ2(h) = molecular target: T8, CK1γ2(h) (Homo sapiens, UniProt P78368)
T8 construct: purchased Eurofins (KinaseProfiler)
T8 sequence (P78368 whole entry): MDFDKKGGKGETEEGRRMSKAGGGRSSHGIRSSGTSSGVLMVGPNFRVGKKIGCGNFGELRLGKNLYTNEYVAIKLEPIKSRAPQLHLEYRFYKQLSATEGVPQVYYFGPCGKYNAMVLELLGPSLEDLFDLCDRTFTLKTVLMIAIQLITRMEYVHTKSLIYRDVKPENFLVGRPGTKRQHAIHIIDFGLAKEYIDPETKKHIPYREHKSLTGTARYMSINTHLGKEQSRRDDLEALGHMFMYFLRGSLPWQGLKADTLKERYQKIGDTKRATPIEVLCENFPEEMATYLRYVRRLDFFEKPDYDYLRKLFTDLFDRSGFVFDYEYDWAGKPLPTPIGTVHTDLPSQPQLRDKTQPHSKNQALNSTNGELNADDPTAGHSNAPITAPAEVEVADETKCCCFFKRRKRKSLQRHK

TAO3(h) = molecular target: T9, TAO3(h) (Homo sapiens, UniProt Q9H2K8)
T9 construct: purchased Eurofins (KinaseProfiler)
T9 sequence (Q9H2K8 1-898): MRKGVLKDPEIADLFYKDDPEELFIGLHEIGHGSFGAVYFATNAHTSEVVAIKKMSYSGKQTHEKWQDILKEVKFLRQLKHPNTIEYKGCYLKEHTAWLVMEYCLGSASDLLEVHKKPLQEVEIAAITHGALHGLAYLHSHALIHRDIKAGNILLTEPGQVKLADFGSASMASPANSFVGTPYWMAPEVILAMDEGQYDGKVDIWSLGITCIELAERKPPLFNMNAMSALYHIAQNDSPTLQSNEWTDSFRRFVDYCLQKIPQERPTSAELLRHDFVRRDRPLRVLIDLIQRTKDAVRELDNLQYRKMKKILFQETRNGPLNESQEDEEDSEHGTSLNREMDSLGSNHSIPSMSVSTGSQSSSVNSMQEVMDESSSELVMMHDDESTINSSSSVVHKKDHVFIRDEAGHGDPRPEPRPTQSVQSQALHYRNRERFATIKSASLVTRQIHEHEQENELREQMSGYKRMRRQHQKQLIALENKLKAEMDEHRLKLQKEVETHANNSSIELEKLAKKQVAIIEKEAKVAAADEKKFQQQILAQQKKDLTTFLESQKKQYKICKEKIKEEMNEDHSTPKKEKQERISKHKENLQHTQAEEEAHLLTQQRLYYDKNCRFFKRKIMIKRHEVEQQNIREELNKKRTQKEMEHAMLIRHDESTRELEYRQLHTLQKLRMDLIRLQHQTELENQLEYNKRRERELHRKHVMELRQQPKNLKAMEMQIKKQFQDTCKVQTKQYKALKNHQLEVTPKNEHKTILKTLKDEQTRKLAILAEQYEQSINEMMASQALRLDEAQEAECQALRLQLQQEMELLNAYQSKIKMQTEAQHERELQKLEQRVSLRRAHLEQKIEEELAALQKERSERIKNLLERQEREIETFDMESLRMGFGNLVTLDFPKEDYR

**Q.** Which inhibition at 0.01 µM (PRK2(h); 10 nM) does the source give for `COc1cc(OC)c(Cl)c(-c2ccc3c(NC(=O)c4ccc(N5CCNC(C)(C)C5)cc4)n[nH]c3n2)c1Cl` [3D185] here?
**A.** The inhibition at 0.01 µM was 12%.

**Q.** What about the inhibition at 0.1 µM (PRK2(h); 100 nM) of the same compound?
**A.** Its inhibition at 0.1 µM is 4%.

**Q.** And the inhibition at 1 µM (PRK2(h); 1000 nM)?
**A.** The inhibition at 1 µM was 3%.

**Q.** And the inhibition at 0.01 µM (RIPK1(h); 10 nM)?
**A.** Its inhibition at 0.01 µM is 4%.

**Q.** And the inhibition at 0.1 µM (RIPK1(h); 100 nM)?
**A.** The inhibition at 0.1 µM was 86%.

**Q.** And the inhibition at 1 µM (RIPK1(h); 1000 nM)?
**A.** The inhibition at 1 µM was 99%.

**Q.** What about the inhibition at 0.01 µM (SGK2(h); 10 nM) of the same compound?
**A.** The inhibition at 0.01 µM was 4%.

**Q.** And the inhibition at 0.1 µM (SGK2(h); 100 nM)?
**A.** Its inhibition at 0.1 µM is 1%.

**Q.** What about the inhibition at 1 µM (SGK2(h); 1000 nM) of the same compound?
**A.** Its inhibition at 1 µM is 26%.

**Q.** And the inhibition at 0.01 µM (PTK5(h); 10 nM)?
**A.** Its inhibition at 0.01 µM is 19%.

**Q.** What about the inhibition at 0.1 µM (PTK5(h); 100 nM) of the same compound?
**A.** The inhibition at 0.1 µM was 64%.

**Q.** What about the inhibition at 1 µM (PTK5(h); 1000 nM) of the same compound?
**A.** The inhibition at 1 µM was 91%.

**Q.** What about the inhibition at 0.01 µM (CDKL3(h); 10 nM) of the same compound?
**A.** Its inhibition at 0.01 µM is -12%.

**Q.** What about the inhibition at 0.1 µM (CDKL3(h); 100 nM) of the same compound?
**A.** Its inhibition at 0.1 µM is -17%.

**Q.** What about the inhibition at 1 µM (CDKL3(h); 1000 nM) of the same compound?
**A.** The inhibition at 1 µM was -9%.

**Q.** What about the inhibition at 0.01 µM (TLK2(h); 10 nM) of the same compound?
**A.** The inhibition at 0.01 µM was 0%.

**Q.** What about the inhibition at 0.1 µM (TLK2(h); 100 nM) of the same compound?
**A.** The inhibition at 0.1 µM was -1%.

**Q.** And the inhibition at 1 µM (TLK2(h); 1000 nM)?
**A.** The inhibition at 1 µM was -1%.

**Q.** What about the inhibition at 0.01 µM (EGFR(L861Q)(h); 10 nM) of the same compound?
**A.** Its inhibition at 0.01 µM is -5%.

**Q.** What about the inhibition at 0.1 µM (EGFR(L861Q)(h); 100 nM) of the same compound?
**A.** Its inhibition at 0.1 µM is -5%.

**Q.** What about the inhibition at 1 µM (EGFR(L861Q)(h); 1000 nM) of the same compound?
**A.** Its inhibition at 1 µM is 39%.

**Q.** What about the inhibition at 0.01 µM (CK1γ2(h); 10 nM) of the same compound?
**A.** Its inhibition at 0.01 µM is -9%.

**Q.** And the inhibition at 0.1 µM (CK1γ2(h); 100 nM)?
**A.** Its inhibition at 0.1 µM is -8%.

**Q.** And the inhibition at 1 µM (CK1γ2(h); 1000 nM)?
**A.** The inhibition at 1 µM was -7%.

**Q.** And the inhibition at 0.01 µM (TAO3(h); 10 nM)?
**A.** The inhibition at 0.01 µM was -1%.

**Q.** And the inhibition at 0.1 µM (TAO3(h); 100 nM)?
**A.** Its inhibition at 0.1 µM is 7%.

**Q.** And the inhibition at 1 µM (TAO3(h); 1000 nM)?
**A.** The inhibition at 1 µM was 36%.
